Measurements from patent US8124129B2, “Crystalline form of the compound A-348441” (Karo Bio AB, priority 2005, dated 2012).

What was measured:
Assay type in all cases: physicochemical
[1] = Stability study under accelerated conditions: moisture content by Karl Fischer analysis
Procedure: (§1) Three samples of Compound I were packaged separately in double polyethylene bags in a small cardboard box, which were stored in a stability chamber under accelerated conditions (40° C./75% […] Humidity). Sample 1 was 10 g of crystalline Form 1; Sample 2 was 2 g of amorphous product prepared as described in Example 1B above; and Sample 3 was 2 g of crystalline Form 2 made as described in Example 1A above.
(§2) Impurity profile, moisture content and crystalline form were measured on the samples, and then again approximately 3 months later for Sample 1, and 2 months later for Samples 2 and 3.
Karl Fischer analysis was used to measure moisture content.

[2] = Stability study under accelerated conditions: impurity profile / overall purity by HPLC; details: for overall purity (HPLC) after storage: 2 months; for overall purity (HPLC), initial: before storage
Procedure: as §2
The impurity profile was measured by HPLC.

[3] = Solubility (general statement)
[4] = Stability study under accelerated conditions: crystalline form by differential scanning calorimetry; details: 3 months, 40° C./75% Residual Humidity
Procedure: as §1, §2

[5] = compared with crystalline form of Example 1S of WO 2004/000869 and amorphous form, general statement
[6] = 40° C./75% Residual Humidity, double polyethylene bags

## CC#C[C@]1(O)CC[C@H]2[C@@H]3CCC4=CC(=O)CCC4=C3[C@@H](c3ccc(N(C)CCO[C@H]4CC[C@@]5(C)[C@@H](C4)C[C@@H](O)[C@@H]4[C@@H]5C[C@H](O)[C@]5(C)[C@@H]([C@H](C)CCC(=O)O)CC[C@@H]45)cc3)C[C@@]21C [Sample 1, (3β,5β,7α,12α)-7,12-dihydroxy-3-{2-[{4-[17β-hydroxy-3-oxo-17α-prop-1-ynylestra-4,9-dien-11β-yl]phenyl}(methyl)amino]ethoxy}cholan-24-oic acid]
[1]; 3 months, 40° C./75% Residual Humidity
  water uptake (Karl Fischer) after storage: little water uptake
[1]; [5]
  hygroscopicity: lower hygroscopicity
[2]; 3 months, 40° C./75% Residual Humidity, double polyethylene bags
  change of overall purity (HPLC) after storage: did not change
[2]; compared with Compound I in other forms
  stability under accelerated conditions, overall conclusion: more stable
[2]; [5]
  stability: improved stability
[3]
  solubility: low solubility
[4]
  change in crystalline form (DSC thermograms): no change in crystalline form

## CC#C[C@]1(O)CC[C@H]2[C@@H]3CCC4=CC(=O)CCC4=C3[C@@H](c3ccc(N(C)CCO[C@H]4CC[C@@]5(C)[C@@H](C4)C[C@@H](O)[C@@H]4[C@@H]5C[C@H](O)[C@]5(C)[C@@H]([C@H](C)CCC(=O)O)CC[C@@H]45)cc3)C[C@@]21C [Sample 2, (3β,5β,7α,12α)-7,12-dihydroxy-3-{2-[{4-[17β-hydroxy-3-oxo-17α-prop-1-ynylestra-4,9-dien-11β-yl]phenyl}(methyl)amino]ethoxy}cholan-24-oic acid]
[1]; 2 months, 40° C./75% Residual Humidity
  water content (Karl Fischer) after storage: 5%
[1]; before storage
  moisture content, initial: anhydrous
[2]; [6]
  overall purity (HPLC) after storage: 96.7%
[2]
  overall purity (HPLC), initial: 97.3%

## CC#C[C@]1(O)CC[C@H]2[C@@H]3CCC4=CC(=O)CCC4=C3[C@@H](c3ccc(N(C)CCO[C@H]4CC[C@@]5(C)[C@@H](C4)C[C@@H](O)[C@@H]4[C@@H]5C[C@H](O)[C@]5(C)[C@@H]([C@H](C)CCC(=O)O)CC[C@@H]45)cc3)C[C@@]21C [Sample 3, (3β,5β,7α,12α)-7,12-dihydroxy-3-{2-[{4-[17β-hydroxy-3-oxo-17α-prop-1-ynylestra-4,9-dien-11β-yl]phenyl}(methyl)amino]ethoxy}cholan-24-oic acid]
[1]; 2 months, 40° C./75% Residual Humidity, relative to Samples 1 and 2
  water uptake (Karl Fischer) after storage: intermediate behaviour
[2]; [6]
  overall purity (HPLC) after storage: 90.7%
[2]
  overall purity (HPLC), initial: 93.2%
